Where two headings read alike, the source gives them in different places.
Assays:
[1] = test system: gastric ulcer after pylorus ligature; experiment: Gastric ulcer-inhibiting effect in rats operated according to Shay's method; type: in vivo, female OFA rats; conditions: Rattus norvegicus, po, 18 h, p.o.
Method: Female OFA rats starved for 24 hours weighing 150 to 160 g were used. (The animals were allowed to drink water ad libitum). The animals were orally treated with the substance to be tested and after 1 hour laparotomy and pylorus ligature according to Shay [Gastroenterology 5, 43 (1945)] were performed under ether anaesthesia. After 18 hours the number and size of ulcers formed on the membranaceous part of the stomach were examined under microscope. The evaluation was made in relation to the control group and the ED50 values were determined. The sizes of the ulcers were expressed as score values from 0.5 to 32.

Acute toxicity, mouse = conditions: in vivo
Method: (§1) These investigations were carried out in OFI mice and OFA rats after starving for 24 hours. Ten animals were used for each dose. The number of doses was 3 or 4.

[2] = test system: spontaneous gastric acid secretion; experiment: Gastric acid secretion-inhibiting effect according to Shay's method; type: in vivo, female OFA rats; conditions: for Gastric acid, change / Gastric juice, change: vs control; for Gastric acid, treated: titration with 0.1N NaOH
Method: After being starved for 24 hours, female OFA rats weighing 130 to 160 g were orally treated with the compounds to be tested. (15 animals were used for each dose.) One hour later laparotomy and pylorus ligature were carried out under ether anaesthesia according to Shay [Gastroenterology 5, 43 (1945)]. After 5 hours the animals were killed by an overdose of ether, their stomaches were excised and the volume and acid content of the gastric juice were determined. The acid was measured by titration with 0.1N NaOH, by using Topfer's indicator.

[3] = test system: acetic acid-induced chronic ulcer; experiment: Recovery-influencing effect on the acetic acid-induced chronic ulcer; type: in vivo, female RG-Wistar rats; conditions: 15 mg/kg oral dose, daily twice for 15 days
Method: After anaesthesia by ether and laparotomy, 50 μl of 20% acetic acid were injected into the stomach wall of female RG-Wistar rats. After 5 days the animals were orally treated with the compounds to be tested daily twice for 15 days. On the 16th day the animals were killed by ether and the size of the ulcers appearing on the stomach was measured. The grade of recovery was defined in relation to the control group.

[4] = test system: indomethacin-induced gastric ulcer; experiment: Inhibition of the indomethacin-induced gastric ulcer; type: in vivo, female RG-Wistar rats; conditions: Rattus norvegicus, po; indomethacin 20 mg/kg orally
Method: After being starved for 24 hours, female RG-Wistar rats were orally treated with the compounds to be tested and then orally with 20 mg/kg of indomethacin after 30 minutes. The evaluation was carried out in relation to the control group and the ED50 values were determined.

Acute toxicity, rat = conditions: in vivo
Method: as §1

[5] = test system: gastric ulcer induced by Aspirin plus stress; experiment: Inhibition of the gastric ulcer induced by Aspirin plus stress; type: in vivo, female RG-Wistar rats; conditions: Rattus norvegicus, po; Aspirin plus stress
Method: After being starved for 24 hours, female RG-Wistar rats weighing 120 to 150 g were orally treated with the compound to be tested and then orally with Aspirin. The animals were sensitized by the aspirin pretreatment and a strong ulceration was induced in the glandular part of stomach of the animals by a subsequent stress (fastening, ducking in water of 22° C. temperature). The ulceration was evaluated as score values from 0 to 2.

[6] = test system: histamine-induced gastric acid secretion; experiment: Inhibition of the histamine-induced gastric acid secretion in rats; type: in vivo, male OFA rats; conditions: for Gastric acid, change / Gastric juice, change: vs control; for Gastric juice, treated: histamine 5 mg/kg/hour;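 as to Gastric acid, treated: dosed 30 min before a 5 hour experiment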
Method: (§2) After being starved for 24 hours, male OFA rats weighing 250 to 320 g were anaestethized by 40% urethane (0.5 ml/100 g), then the trachea and jugular vein were cannulated (10 animals were used for each dose). A glass cannula was inserted to the stomach from the direction of the pylorus. The stomach was washed with lukewarm water and then purified by air blown through. The gastric acid secretion was induced by an infusion of histamine (5 mg/kg/hour), or pentagastrin (0.05 mg/kg/hour) or carbachol (0.01 mg/kg/hour), respectively. […]

[7] = test system: carbachol-induced gastric acid secretion; experiment: Inhibition of the carbachol-induced gastric acid secretion in rats; type: in vivo, male OFA rats; conditions: for Gastric acid, change / Gastric juice, change: vs control; for Gastric juice, treated: carbachol 0.01 mg/kg/hour;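 as to Gastric acid, treated: dosed 30 min before a 5 hour experiment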
Method: as §2

[8] = test system: reserpine-induced gastric ulcer; experiment: Inhibition of the reserpine-induced gastric ulcer; type: in vivo, female OFA rats; conditions: Rattus norvegicus, po, 18 h, p.o., reserpine 5 mg/kg s.c.
Method: After being starved for 24 hours, female OFA rats were orally treated with the compounds to be tested and then subcutaneously (s.c.) with 5 mg/kg of reserpine after 1 hour. After 18 hours the animals were killed and their stomach were examined under microscope. The evaluation was performed as described under the preceding paragraph 1.

[9] = test system: pentagastrin-induced gastric acid secretion; experiment: Inhibition of the pentagastrin-induced gastric acid secretion in rats; type: in vivo, male OFA rats; conditions: for Gastric acid, change / Gastric juice, change: vs control; for Gastric juice, treated: pentagastrin 0.05 mg/kg/hour;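 as to Gastric acid, treated: dosed 30 min before a 5 hour experiment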
Method: as §2

[10] = read-out: ED50 related to the number of ulcers
[11] = read-out: ED50 related to the occurrance of ulcers
[12] = read-out: ED50 related to the severity of ulcers

## CN(C)c1ccccc1C[S+]([O-])c1nc2ccccc2[nH]1 (stereo not drawn) [NC-1300, 2-[(2-dimethylaminobenzyl)sulfinyl]-1H-benzimidazole, reference compound]
[1]; [10]
  ED50: 7.4 mg/kg
[1]; [11]
  ED50: 14.5 mg/kg
[1]; [12]
  ED50: 5.7 mg/kg
Acute toxicity, mouse; ip, female mouse
  LD50: 415 mg/kg
Acute toxicity, mouse; ip, male mouse
  LD50: 410 mg/kg
Acute toxicity, mouse; po, female mouse, precision restricted by solubility
  LD50: > 1000 mg/kg
Acute toxicity, mouse; po, male mouse, precision restricted by solubility
  LD50: > 1000 mg/kg
[2]; 10 mg/kg p.o.
  Gastric juice, treated: 6.11 mL
  Gastric acid, change: -34.0%
  Gastric juice, change: -16.3%
  Gastric acid, treated: 2.74 mL
[2]; 20 mg/kg p.o.
  Gastric juice, treated: 4.63 mL
  Gastric acid, change: -58.2%
  Gastric juice, change: -17.5%
  Gastric acid, treated: 1.36 mL
[2]; 50 mg/kg p.o.
  Gastric juice, treated: 4.50 mL
  Gastric acid, change: -88.1%
  Gastric juice, change: -23.7%
  Gastric acid, treated: 0.41 mL
[2]; po, gastric acid, Shay rat
  ED50: 16 mg/kg
[3]
  increase in the recovery: 37%
[4]
  ED50: 8.4 mg/kg
Acute toxicity, rat; ip, female rat
  LD50: 245 mg/kg
Acute toxicity, rat; ip, male rat
  LD50: 270 mg/kg
Acute toxicity, rat; po, female rat, precision restricted by solubility
  LD50: 1400 mg/kg
Acute toxicity, rat; po, male rat, precision restricted by solubility
  LD50: 1300 mg/kg
[5]
  ED50: 11.9 mg/kg
[6]; 5 mg/kg i.p.
  Gastric acid, treated: 1.97 mL
  Gastric acid, change: -43%
  Gastric juice, change: -45%
  Gastric juice, treated: 1.27 mL
[6]; 10 mg/kg i.p.
  Gastric acid, treated: 0.78 mL
  Gastric acid, change: -77%
  Gastric juice, change: -79%
  Gastric juice, treated: 0.49 mL
[6]; 20 mg/kg i.p.
  Gastric acid, treated: 0.61 mL
  Gastric acid, change: -82%
  Gastric juice, change: -78%
  Gastric juice, treated: 0.50 mL
[6]; Rattus norvegicus, ip, histamine-induced, dose column i.p.
  ED50: 6 mg/kg
[7]; 6.25 mg/kg i.p.
  Gastric acid, treated: 1.89 mL
  Gastric acid, change: -31%
  Gastric juice, change: -25%
  Gastric juice, treated: 1.55 mL
[7]; 9 mg/kg i.p.
  Gastric acid, treated: 1.86 mL
  Gastric acid, change: -32%
  Gastric juice, change: -24%
  Gastric juice, treated: 1.57 mL
[7]; 12.5 mg/kg i.p.
  Gastric acid, treated: 0.72 mL
  Gastric acid, change: -74%
  Gastric juice, change: -58%
  Gastric juice, treated: 0.87 mL
[7]; Rattus norvegicus, ip, carbachol-induced, dose column i.p.
  ED50: 9.6 mg/kg
[8]; [10]
  ED50: 8 mg/kg
[8]; [11]
  ED50: 18 mg/kg
[8]; [12]
  ED50: 6 mg/kg
[9]; 5 mg/kg i.p.
  Gastric acid, treated: 1.25 mL
  Gastric acid, change: -23%
  Gastric juice, change: -26%
  Gastric juice, treated: 0.92 mL
[9]; 10 mg/kg i.p.
  Gastric acid, treated: 0.47 mL
  Gastric acid, change: -74%
  Gastric juice, change: -70%
  Gastric juice, treated: 0.35 mL
[9]; 20 mg/kg i.p.
  Gastric acid, treated: 0.32 mL
  Gastric acid, change: -82%
  Gastric juice, change: -77%
  Gastric juice, treated: 0.27 mL
[9]; Rattus norvegicus, ip, pentagastrin-induced, dose column i.p.
  ED50: 7.9 mg/kg

Reference: patent US5037830A, “Novel thiouracyl derivatives, pharmaceutical compositions containing them and process for preparing same” (Richter Gedeon Vegyeszeti Gyar RT, priority 1989, dated 1991)
